Legend:
[1] = test system: primary extracted medulloblastoma cells; experiment: antitumor efficacy against medulloblastoma, subcutaneous xenograft model;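 further: male CB-17/SCID mice bearing subcutaneous tumors, randomized at 150-300 mm^3, tumor volume from caliper diameters as 0.5 × longest × shortest squared, measured twice weekly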; type: in vivo, CB-17/SCID mice; details: 10 mg/kg i.g. BID, 17 days
Procedure: 60 male CB-17/SCID mice (aged 6-8 weeks) were purchased from Shanghai SLAC Laboratory Animal Co., Ltd. Animals were housed in individually ventilated cages (IVCs), with five mice per cage. Housing conditions were as follows: temperature was maintained at 20-26°C; humidity was 30-70%; 12 hours of light and 12 hours of darkness.
(§2) 30 mice with uniform tumor sizes (Coefficient of Variation, CV < 30%, CV = Standard Deviation / Mean) were selected from this group. These mice were selected and randomly divided into five experimental groups according to Table 6-2, with six mice in each group and one group per cage. Drug administration began the day after grouping and lasted for 17 days with a frequency of twice daily (BID). The drug was discontinued after 17 days to observe tumor changes.
(§3) During routine examinations, animals were monitored for tumor growth, activity level, food intake, water consumption, weight gain or loss, eye, fur, and any other abnormal behaviors. Animal deaths and clinical abnormalities were recorded. Tumor volume (TV) was measured twice weekly using calipers and calculated using the formula: TV = 0.5a × b^2, wherein a is the longest diameter of the tumor and b is the shortest diameter. Body weight was recorded twice weekly, concurrently with tumor volume measurements.
(§4) If the animals' weight subsequently recovered to within a 10% loss compared to baseline, whether to continue the administration was based on the animals' condition. The in vivo experimental for an individual animal or the entire group would be terminated under the following conditions. The animals will be euthanized before death or coma. • ➢ If the animals' health condition deteriorated continuously, causing persistent suffering and is unable to eat or drink. • ➢ If the animal became emaciated, with a body weight loss exceeding 20% compared to the initial administration. • ➢ If the tumor volume of an individual mouse exceeded 3000 mm^3 or the mean tumor volume of the entire group exceeded 2000 mm^3.
All data were analyzed using GraphPad Prism 5.0. P value < 0.05 was considered statistically significant.

in vivo = details: male, C57, mouse, plasma, po, 10 mg/kg
Procedure: The collected plasma samples were subjected to a protein precipitation method by using an organic reagent according to the following method to extract test article in the plasma, and the extracted sample was subjected to quantitative concentration analysis through the LC-MS/MS.
Meanwhile, an accompanying standard curve and quality control samples were prepared for quantitative analysis.
The fumarate salt form F of the compound of formula (I) Group: 50 µL of plasma at each time point was taken, 400 µL of acetonitrile was added, vortex mixing and centrifugation was performed at 10000 rpm for 10 min, and a 200 µL supernatant for LC-MS/MS analysis was taken. Meanwhile, an accompanying standard curve and quality control samples were prepared for quantitative analysis.
According to the plasma drug concentration data obtained through analysis, the main pharmacokinetic parameters were calculated according to the non-atrioventricular model by using Kinetic software (Version 5.0).

[2] = body weight of tumor-bearing mice during treatment
Excerpt: as §2, §3, §4

Gli1 Gene = experiment: Gli1 mRNA expression in tumor tissues (RT-qPCR), Shh signaling pathway analysis; type: in vivo, CB-17/SCID mice; details: 10 mg/kg i.g. BID × 3 days; tumor tissue 2 hours after last administration; GAPDH internal reference
Excerpt: Table 7-1 The Grouping and Drug Administration Plan
Primary tumor cells were extracted from Math1-Cre/Ptch1 ^C/C mice with spontaneous medulloblastoma and subcutaneously inoculated into CB-17/SCID mice to establish a xenograft model of medulloblastoma.
CB-17/SCID mice were subcutaneously injected with primary extracted medulloblastoma cells. After 3-4 weeks, a subset of mice developed tumors with volumes ranging from 150 to 300 mm^3.
From these mice, 25 tumor-bearing mice with uniform tumor sizes (with CV < 30%, CV = SD/Mean) were selected and randomly divided into 5 experimental groups (Vehicle, GDC-0449-10 mg/kg, Compound A-10 mg/kg, Compound A-3 mg/kg, Compound A-1 mg/kg) according to Table 2. Each group consisted of 5 mice per cage. Administration began on the day after grouping. The administration period was 3 days, with a frequency of BID. Tumor tissues were collected 2 hours after the last administration, and the mRNA expression level of the Glil gene in the tumor tissues was analyzed by RT-qPCR.
The tumor tissues were lysed by RNAiso Plius (TaKaRa, 108-95-2) to extractand RNA was then extracted using chloroform extraction and isopropanol precipitation methods. Subsequently, the mRNA level of the Glil gene was detected using a real-time fluorescence quantitative PCR instrument (ABI 7500), with GAPDH serving as the internal reference for quantitative analysis.
Experimental data in all tables are presented as "mean ± standard deviation" with error bars in figures representing standard error of the mean (SEM). Student's t-test was used to compare statistical differences in Glil gene mRNA expression levels in tumor tissues among treatment groups. All data were analyzed using GraphPad Prism 5.0. P-value <0.05 was considered statistically significant. ***, P<0.001; ##, P<0.01.
Glil is a target gene of the Hedgehog signaling pathway, and its mRNA expression level reflects the activation status of the hedgehog signaling pathway.

[3] = SCID tumor-bearing mice, i.g. BID × 3 days
Procedure: During routine examinations, animals were monitored for tumor growth, activity level, food intake, water consumption, weight gain or loss, eye, fur, and any other abnormal behaviors. Animal deaths and clinical abnormalities were recorded.

[4] = hygroscopicity evaluation by dynamic vapor sorption (DVS); type: physicochemical
Procedure: The DVS curves were collected on a DVS Intrinsic from SMS (Surface Measurement Systems).The relative humidity at 25°C was corrected with the deliquescence points of LiCl, Mg (NO3)2 and KCl.

[5] = dynamic solubility in water and three biological solvents; type: physicochemical; details: 37 °C, thermodynamic from solid
Procedure: Finally, the volume is fixed with purified water.
(§1) 0.17 g of sodium dihydrogen phosphate (NaH2PO4, anhydrous), 0.021 g of sodium hydroxide and 0.31 g of sodium chloride were weighed into a 50 mL volumetric flask respectively, about 48 mL of purified water was added for dissolution, the pH was adjusted to exactly 6.5 with 1M hydrochloric acid or 1M sodium hydroxide, and the volume was fixed with purified water. 0.11 g of SIF powder was then added, stirred and sonicated to completely dissolve the powder. The solution can be used only after being placed at room temperature for two hours to reach equilibrium.
as §1, with “0.41 mL” for “0.17 g”, “glacial acetic acid, 0.20” for “sodium dihydrogen phosphate (NaH2PO4, anhydrous), 0.021”, “0.59” for “0.31”, “respectively, and” for “respectively,”, “5.0” for “6.5”, “0.56” for “0.11”
The solubility results of the two samples in SGF, FASSIT and FeSSIF are similar. […] Table 4-1 Summary of the dynamic solubility test results

[6] = solid state stability (XRPD, HPLC, chiral purity); type: physicochemical
Procedure: The purity test, the dynamic solubility and the stability test are tested by the Agilent 1260/1100 high performance liquid chromatograph, and the analysis conditions and chiral purity test analysis conditions of the high performance liquid chromatography test are respectively as follows.
After placing the amorphous free base and fumarate crystal form F of the compound of formula (I) at 25°C/60% RH and 40°C/75% RH for 1 week, the physical and chemical stability of the sample is detected by XRPD and HPLC (at the same time the chiral purity of the sample is tested). […] Table 4-2 Solid Stability Evaluation Summary

[7] = rats, P.O., 10 mg/kg; data from WO2018006756A1 (B1); cited from earlier work
[8] = pH 1.8, simulated gastric fluid

With `CS(=O)(=O)c1ccc(C(=O)Nc2ccc(Cl)c(-c3ccccn3)c2)c(Cl)c1` [GDC-0449, reference compound] the “T/C (%)” value [1] was 32.49%, the “TGI (%)” value ([1]; TGI = [1 - RTV(treatment group) / RTV(control group)] × 100%) was 67.51% and the AUC(0-inf) (in vivo) was 6650 ng·h/mL. For the same compound, the AUC(0-t) (in vivo) was 6040 ng·h/mL, the Cmax (in vivo) was 1270 ng/mL and the MRT (in vivo) was 8.33 h. For the same compound, the Tmax (in vivo) was 0.63 h, the half-life (in vivo) was 8.43 h and the “Mean Body Weight at Day 0” value ([2]; 10 mg/kg group, before treatment) was 23.7 ± 2.1 g. The “Body Weight Change Rate (%)” value ([2]; 10 mg/kg i.g. BID, 17 days) was 9.3%, the “Mean Body Weight at Dosing Endpoint” value ([2]; 10 mg/kg i.g. BID, 17 days) was 25.9 ± 2.0 g and the “impact on the body weight of tumor-bearing mice during the treatment period” value ([2]; administered doses, i.g. BID × 17 days) was “no significant impact”. For the same compound, the “mRNA Expression Level of Glil Gene” value (Gli1 Gene) was 0.194 ± 0.074 and the “abnormal behaviors or animal deaths during the administration period” value [3] was “no abnormal behaviors or animal deaths”.

In the case of `Cc1cnc(-c2cc(N3CCc4nc(N5CCC(O)CC5)ncc4[C@H]3C)ncc2Cl)c(C)c1` [compound of formula (I), (R)-1-(6-(5'-chloro-3,5-dimethyl-[2,4'-bipyridin]-2'-yl)-5-methyl-5,6,7,8-tetrahydropyrido[4,3-d]pyrimidin-2-yl)piperidin-4-ol], the “crystal transformation or crystal form change after the DVS test (XRPD)” value ([4]; 0% RH-95% RH-0% RH, 25°C) is reported as “no crystal transformation or crystal form change”, the “Water adsorption (25°C/80%RH)” value ([4]; 25°C/80%RH) is reported as 2.4 and the moisture adsorption ([4]; 25°C/80%RH) is reported as 2.4%. It also gave a solubility at 1 h [5, 8] of 4100 µg/mL, a solubility at 2 h [5, 8] of 3900 µg/mL and a solubility at 4 h [5, 8] of 4000 µg/mL. It also gave a solubility at 24 h [5, 8] of 3900 µg/mL, a solubility at 1 h ([5]; pH 5, fessif) of 3000 µg/mL and a solubility at 2 h ([5]; pH 5, fessif) of 3000 µg/mL. The solubility at 4 h ([5]; pH 5, fessif) was 2900 µg/mL, the solubility at 24 h ([5]; pH 5, fessif) was 2900 µg/mL and the solubility at 1 h ([5]; pH 6.5, fassif) was 210 µg/mL. It also gave a solubility at 2 h ([5]; pH 6.5, fassif) of 200 µg/mL, a solubility at 4 h ([5]; pH 6.5, fassif) of 240 µg/mL and a solubility at 24 h ([5]; pH 6.5, fassif) of 220 µg/mL. The solubility at 1 h ([5]; water) was 13 µg/mL, the solubility at 2 h ([5]; water) was 16 µg/mL and the solubility at 4 h ([5]; water) was 18 µg/mL. The solubility at 24 h ([5]; water) was 30 µg/mL, the “Chiral purity (%)” value ([6]; 25°C/60%RH_1w) was 98.7% and the “Purity (Area%)” value ([6]; 25°C/60%RH_1w) was 99.0 Area%. The “Purity/Initial purity (%)” value ([6]; 25°C/60%RH_1w) was 100.0%, the “Chiral purity (%)” value ([6]; 40°C/75%RH_1w) was 98.7% and the “Purity (Area%)” value ([6]; 40°C/75%RH_1w) was 98.9 Area%. For the same compound, the “Purity/Initial purity (%)” value ([6]; 40°C/75%RH_1w) was 99.9%, the “Chiral purity (%)” value ([6]; Start) was 98.5% and the “Purity (Area%)” value ([6]; Start) was 99.0 Area%. For the same compound, the “Solid State Stability” value ([6]; summary, 25°C/60% RH and 40°C/75% RH for 1 week) was “good physical and chemical stability” and the F% [7] was 100%.

Reference: patent EP4696689A1, “SALT FORM AND CRYSTAL FORM OF CHIRAL HETEROCYCLIC COMPOUND HAVING HEDGEHOG PATHWAY ANTAGONIST ACTIVITY” (Suzhou Kintor Pharmaceuticals, Inc., priority 2023, dated 2024)
